{"source": "patent US20180177891A1", "about": "“Nanoparticle-Based Antigen Specific Immunotherapy” (Midatech Limited, priority 2015, published 2018)", "key": {"Solubility tests": {"assay": "Solubility tests", "type": "physicochemical", "description": "Given the low incorporation of 10% C19-A3 peptide into GNPs (3-5%) using the 75% methanol-based preparation method, solubility tests were performed to determine the optimal solution for C19-A3 peptide conjugation to gold nanoparticles. […] Therefore, water-based GNP synthesis methods were developed using low (10%) or intermediate (35%) levels of methanol, and vivaspin centrifugation to remove any unbound peptide. GNPs containing 10% C19-A3 peptide and 10% glucose C2 (NP58) or 10% mannose C2 (NP61) were synthesised using a water-based (10% methanol) method (Table 12). HPLC analysis of peptide released from the C19-A3-GNPs following treatment with KCN solution (100 mM), confirmed 100% and 62% incorporation efficiency of C19-A3 peptide, with 31 and 19 peptides bound per GNP, for NP58 and NP61, respectively. An intermediate 35% methanol preparation method was also tested for synthesis of 10% C19-A3, 10% glucose C2 GNPs (NP63). HPLC analysis again confirmed high incorporation of C19-A3 peptide (67%), with 20 peptides bound per GNP."}, "[1]": {"tested_on": "OT-II (ovalbumin peptide (323-339) specific) CD4+ T cells", "assay": "OT-II T cell proliferation in draining LN after intradermal injection", "type": "in vivo, C57BL/6 mice", "conditions": "3 days later, flow cytometry", "description": "PBS, ovalbumin peptide (323-339) or ovalbumin peptide (323-339) containing GNPs (NP167, NP168) were injected intradermally in C57BL/6 mice 24 h after i.v. administration of fluorescent cell trace violet (CTV)-labelled OT-II (ovalbumin peptide (323-339) specific) CD4+ T cells. 3 days later, draining LN cells were isolated and studied by flow cytometry. The presence of OT-II cells in the LN was shown by the appearance of cells of that are […] CD45.1^+Vα2^+ and high CTV fluorescence (right hand edge of square). Proliferation of OT-II cells was seen as dilution of the CTV fluorescence, bringing the cells progressively at each cell cycle into the blue box. The percentage of cells with the proliferation square is shown. […] Each plot represents the results from a different mouse.\nPBS, ovalbumin peptide (323-339), or ovalbumin peptide (323-339) coupled GNPs (NP167, NP168) were administered intradermally to C57BL-6 mice, at the same time as i.v. administration of fluorescent cell trace violet (CTV) labelled OT-II (Ovalbumin peptide specific) CD4 positive T cells. Draining LN and spleen cells were harvested 3 days after ovalbumin (323-339) peptide administration, and studied by flow cytometry. Where fluorescent cells are seen but the level of fluorescence has been reduced, this implies that they have recognised their target peptide on APCs in that tissue and undergone cell division."}, "BDC-2.5 CD4+ T cells": {"tested_on": "BDC-2.5 CD4+ T cells", "assay": "BDC-2.5 CD4+ T cell proliferation in LNs and spleen after injection", "type": "in vivo, murine", "text": "Increased proliferation is seen with GNPs coupled to antigen both in the draining and distant LN sites and spleen.\nA similar in vivo protocol was designed, using fluorescently labelled indicator CD4^+ T cells (BDC-2.5, specific for chromograninA 342-355 found in pancreatic beta cells) and the peptide “BDC-2.5 mimotope” (a peptide of similar configuration to this epitope, that mimics the chromogranin A 342-355 peptide) coupled to GNPs linked to either mannose C2 or glucose C2.\nA preliminary in vivo experiment was carried out using the murine BDC-2.5 mimotope peptide and fluorescently-labelled indicator CD4 T cell clones specific for this peptide described above. GNPs were given coupled to peptide (BDC-2.5 mimotope), IL-10, or both, and compared to blank GNPs of injected controls. […] This provides evidence that the cytokine travels with the GNPs to distant sites when complexed with GNPs, and in bioactive form. This is of enhanced efficiency compared to IL-10 alone."}, "[2]": {"tested_on": "OT-II (ovalbumin peptide (323-339) specific) CD4+ T cells", "assay": "Accumulation of fluorescent cells in LN of CCR7−/− mice", "type": "in vivo", "conditions": "CCR7−/− compared to wildtype B6 mice", "description": "In order to determine whether the injected peptide is carried to draining LNs in fluid phase or carried via migratory skin DCs, homozygous knockout mice for the chemokine receptor CCR7 (which mediates DC migration from skin) were treated in the same protocol as above."}, "[3]": {"tested_on": "Human immature monocyte derived dendritic cells (iDCs)", "assay": "DC maturation (CD80, HLA-DR expression, FACS)", "type": "cell-based", "conditions": "subsequent stimulation with LPS", "description": "Human immature monocyte derived dendritic cells (iDCs) were incubated with proinsulin C19-A3 coupled GNPs or without GNPs for 4 h. Thereafter, the GNPs were washed off and cells left overnight, either alone or in the presence of 100 ng/ml LPS. Overnight maturation of DCs was measured as increases of CD80 and HLA-DR expression using FACS.\n(§1) However, IL-10-GNPs changed the ability of DCs to upregulate HLA-DR and activation molecules CD80 and CD25 upon stimulation with LPS."}, "[4]": {"tested_on": "Human immature monocyte derived dendritic cells (iDCs)", "assay": "Cytokine release by DCs after LPS (Luminex)", "type": "cell-based", "description": "iDCs were also incubated with proinsulin C19-A3 GNPs coupled to glucose (GNPgluc), with proinsulin C19-A3 GNPs coupled to mannose (GNPman), or without GNPs for 4 hrs. Thereafter, cells were washed and subsequently stimulated with 100 ng/ml LPS and left overnight. Supernatants were collected the next day and cytokine (IL-10, IL-12 and TNF) release by DCs measured using Luminex.\nas §1"}}, "note": "Where no end group is shown, it is not given here."}
{"molecule": "GSLQPLALEGSLQKRGIV [C19-A3 peptide, GSLQPLALEGSLQKRGIV]", "values": [{"measurement": "solubility in water", "setting": "Solubility tests", "value": "highly soluble"}]}
{"molecule": "ISQAVHAAHAEINEAGR [ovalbumin peptide, Ovalbumin 323-339 peptide, reference compound]", "values": [{"measurement": "OT-II cell accumulation and proliferation in draining LN", "setting": "[1]", "value": "low levels"}]}
{"molecule": "YVRPLWVRME [BDC-2.5 mimotope peptide, peptide that mimics the chromogranin A 342-355 peptide, reference compound]", "values": [{"measurement": "accumulation of proliferating indicator cells in draining LN, distant LNs and spleen", "setting": "BDC-2.5 CD4+ T cells; 3 days after injection", "value": "modest accumulation of proliferating indicator cells"}]}
{"molecule": "ovalbumin (323-339) GNPs: ovalbumin (323-339) peptide GNPs", "values": [{"measurement": "fluorescent cells accumulated in the LN", "setting": "[2]", "value": "reduced numbers of fluorescent cells"}]}
{"molecule": "soluble IL-10: Human recombinant IL-10, not bound to nanoparticles (protein, UniProt P22301 19-178, looked up) Interleukin-10: SPGQGTQSENSCTHFPGNLPNMLRDLRDAFSRVKTFFQMKDQLDNLLLKESLLEDFKGYLGCQALSEMIQFYLEEVMPQAENQDPDIKAHVNSLGENLKTLRLRLRRCHRFLPCENKSKAVEQVKNAFNKLQEKGIYKAMSEFDIFINYIEAYMTMKIRN", "values": [{"measurement": "maturation of DCs upon LPS (phenotype)", "setting": "[3]", "value": "immature phenotype"}, {"measurement": "pro-inflammatory cytokine production (IL-12 and TNF)", "setting": "[4]; LPS-treated DCs", "value": "reduced pro-inflammatory cytokine production"}, {"measurement": "release of IL-10 in the culture", "setting": "[4]; final IL-10 concentration 100 pg/ml", "value": "significantly higher release of IL-10"}, {"measurement": "effect of IL-10 on proliferation of indicator T cells", "setting": "BDC-2.5 CD4+ T cells; preliminary in vivo experiment, IL-10 at the same concentration", "value": "no effect of proliferation"}]}
